# According to US4517005A, “Aminophenol urease inhibitors and urease inhibited urea based fertilizer compositions” (Allied Corporation, priority 1983, dated 1985):
# Counter-ions that a name gives are not always drawn.
# What was measured:
# [1] = test system: urease in New York soil (Cazenovia silt loam, pH 7.0); assay: Urease Inhibition Efficacy Test in New York soil (Cazenovia silt loam); assay type: biochemical; conditions: 40 micrograms test compound per gram soil; 42.8 mg urea per 20 g air-dry soil; incubated at 25° C. for three days; remaining urea; run in triplicate
# Method: (§1) Efficacy tests were conducted to evaluate the efficacy of certain representative aminophenol compounds as urease inhibitors. The inhibition tests were run in New York soil (Cazenovia silt loam, pH 7.0) or in Wisconsin soil (Plano silt loam, pH 5.4)
# (§2) Evaluations (run in triplicate) consisted of applying 800 micrograms of the test compound in 5 ml of water and 42.8 mg of urea in 1 mL of water to 20 g of air-dry soil in a glass bottle. The bottle was capped with perforated aluminum foil and incubated at 25° C.C for three days prior to extraction with 100 mL of a 2M KCl solution containing 0.5 mg of phenylmercuric acetate. The extracts were then analyzed for remaining urea using an autoanalyzer. Percent inhibition was calculated as % Inhibition=[1-(A-B/A-C)]×100 where A is urea recovered from unincubated sample (urea added to soil and immediately extracted); B is urea recovered from inhibited sample; and C is urea recovered from the control (uninhibited sample).
# [2] = test system: urease in Wisconsin soil (Plano silt loam, pH 5.4); assay: Urease Inhibition Efficacy Test in Wisconsin soil (Plano silt loam); assay type: biochemical; conditions: 40 micrograms test compound per gram soil; 42.8 mg urea per 20 g air-dry soil; incubated at 25° C. for three days; remaining urea; run in triplicate
# Method: as §1, §2
Compound,% Inhibition 40 micrograms per gram soil Cazenovia pH 7.0 [1] [%],% Inhibition 40 micrograms per gram soil Wisconsin pH 5.4 [2] [%]
Nc1ccc(O)cc1 [4-aminophenol],46,–
"CN(C)c1ccc(O)cc1 [4-(N,N--dimethylamino)-phenol hydrochloride]",77,49
Oc1ccc(Nc2ccccc2)cc1 [4-(N--phenyl)aminophenol],69,53
Nc1ccccc1O [2-aminophenol],8,–
CNc1ccc(O)cc1 [4-(N--methylamino)phenol sulfate],82,55
O=C(O)CNc1ccc(O)cc1 [N--(4-Hydroxyphenyl)glycine],82,61
O=C(Nc1ccc(O)cc1)c1ccccc1 [4'-Hydroxybenzanilide],50,14
"2,6-Dichloroiminophenol, sodium salt",69,–
